Laboratory results as given in DBAASP.
In brackets after ≈: the same amount, converted by molar mass. Several values for one entry are separate records, joined by “and”; a condition that tells them apart may be missing. Equal values may be shown once.

Experiments:
Assay in all cases: ≥ marks a high value that may be exact or a test limit, other limits are often not marked, values filed in µg/mL are converted to µM
Escherichia coli = tested on: Escherichia coli
Listeria innocua = tested on: Listeria innocua
Micrococcus luteus A270 = tested on: Micrococcus luteus A270
Micrococcus luteus = tested on: Micrococcus luteus
[1] = tested on: Salmonella enterica subsp. enterica serovar Enteritidis
Staphylococcus aureus = tested on: Staphylococcus aureus
[2] = tested on: Bacillus subtilis ATCC 6633
[3] = tested on: Candida albicans ATCC 20032
[4] = tested on: Escherichia coli ATCC 25922
[5] = tested on: Staphylococcus aureus ATCC 25923
[6] = tested on: Klebsiella pneumoniae ATCC 10031
[7] = tested on: Micrococcus luteus ATCC 10240
[8] = tested on: Pseudomonas aeruginosa ATCC 27853
[9] = tested on: Salmonella enterica subsp. enterica serovar Typhimurium ATCC 14028
[10] = tested on: Shigella dysenteriae ATCC 9752
[11] = tested on: Staphylococcus aureus ATCC 6538P
[12] = tested on: Staphylococcus aureus TK784
[13] = tested on: Staphylococcus epidermidis ATCC 12228
[14] = tested on: Bacillus subtilis ATCC 62037
[15] = tested on: Candida albicans ATCC 10231
[16] = tested on: Cryptococcus neoformans ATCC 34881
[17] = tested on: Escherichia coli ATCC 27325
[18] = tested on: Pseudomonas putida ATCC 17426
[19] = tested on: Saccharomyces cerevisiae ATCC 44774
[20] = tested on: Salmonella enterica subsp. enterica serovar Enteritidis ATCC 13076
[21] = tested on: Staphylococcus aureus ATCC 15752
[22] = tested on: Streptococcus mutans ATCC 25175
[23] = tested on: Candida albicans NCPF 1467
[24] = tested on: Staphylococcus aureus NCTC 10788
[25] = tested on: Escherichia coli NCTC 10418
Aeromonas hydrophila = tested on: Aeromonas hydrophila
Vibrio harveyi = tested on: Vibrio harveyi

Row | SMILES | MIC [2] | MIC [4] | MIC [6] | MIC [7] | MIC [8] | MIC [9] | MIC [10] | MIC [11] | MIC [12] | MIC [13] | further results
1 | CC(C)C[C@H](NC(=O)[C@@H](NC(=O)[C@@H](NC(=O)[C@@H](N)CO)[C@@H](C)O)C(C)C)C(=O)N[C@H](C(=O)N[C@@H](CO)C(=O)N[C@@H](CCCCN)C(=O)N[C@@H](Cc1ccc(O)cc1)C(=O)N[C@@H](CCCN=C(N)N)C(=O)O)[C@@H](C)O [STVLTSKYR] | – | – | – | – | – | – | – | – | – | – | MIC (Escherichia coli): 8 µM (≈ 8.43 µg/mL); MIC (Listeria innocua): 2 µM (≈ 2.11 µg/mL); MIC (Micrococcus luteus A270): 15 µM (≈ 15.8 µg/mL); MIC (Micrococcus luteus): 15 µM (≈ 15.8 µg/mL); MIC [1]: 8 µM and 7.5 µM; MIC (Staphylococcus aureus): 2 µM (≈ 2.11 µg/mL)
2 | CC[C@H](C)[C@H](N)C(=O)N[C@@H](CC(C)C)C(=O)NCC(=O)N1CCC[C@H]1C(=O)N[C@H](C(=O)N[C@@H](CC(C)C)C(=O)NCC(=O)N[C@@H](CC(C)C)C(=O)N[C@H](C(=O)NCC(=O)N[C@@H](CO)C(=O)N[C@@H](C)C(=O)N[C@@H](CC(C)C)C(=O)NCC(=O)NCC(=O)N[C@@H](CC(C)C)C(=O)N[C@H](C(N)=O)[C@@H](C)CC)C(C)C)C(C)C [ILGPVLGLVGSALGGLI] | ≥ 64.6 µM | > 64.6 µM | – | – | – | – | – | – | – | – | MIC [3]: ≥ 64.6 µM; MIC [5]: > 64.6 µM
3 | CC(C)C[C@H](NC(=O)[C@H](Cc1c[nH]c2ccccc12)NC(=O)[C@H](CCCCN)NC(=O)[C@H](CCCCN)NC(=O)[C@H](CC(C)C)NC(=O)[C@H](Cc1c[nH]c2ccccc12)NC(=O)[C@H](CCCCN)NC(=O)[C@H](CC(C)C)NC(=O)[C@@H](N)CC(C)C)C(=O)N[C@@H](CCCCN)C(=O)N[C@@H](CCCCN)C(N)=O [LLKWLKKWLKK] | 1.68 µM (≈ 2.5 µg/mL) | 27 µM (≈ 40 µg/mL) | 27 µM (≈ 40 µg/mL) | 3.37 µM (≈ 5 µg/mL) | 13.5 µM (≈ 20 µg/mL) | 53.9 µM (≈ 79.9 µg/mL) | ≥ 53.9 µM | 1.68 µM (≈ 2.5 µg/mL) | 27 µM (≈ 40 µg/mL) | 1.68 µM (≈ 2.5 µg/mL) | –
4 | CC(C)C[C@H](NC(=O)[C@H](C)NC(=O)[C@H](CC(N)=O)NC(=O)[C@H](C)NC(=O)[C@@H](NC(=O)CNC(=O)[C@H](C)NC(=O)[C@@H](NC(=O)[C@@H](NC(=O)[C@H](CCCCN)NC(=O)[C@H](CCC(N)=O)NC(=O)[C@H](Cc1ccccc1)NC(=O)[C@H](CC(=O)O)NC(=O)[C@H](C)NC(=O)[C@@H](N)CCC(N)=O)C(C)C)C(C)C)C(C)C)C(=O)N[C@@H](C)C(=O)N[C@@H](Cc1cnc[nH]1)C(=O)N[C@@H](CCCN=C(N)N)C(=O)N[C@@H](Cc1ccc(O)cc1)C(=O)N[C@@H](Cc1cnc[nH]1)C(=O)O [QADFQKVVAGVANALAHRYH] | – | – | – | – | – | – | – | – | – | – | MIC (Escherichia coli): 71 µM (≈ 156 µg/mL); MIC (Listeria innocua): ≥ 71 µM; MIC (Micrococcus luteus A270): ≥ 71 µM; MIC [1]: ≥ 35 µM
5 | CC[C@H](C)[C@H](NC(=O)CNC(=O)[C@H](CCCCN)NC(=O)[C@H](CCCCN)NC(=O)[C@H](CCC(N)=O)NC(=O)[C@H](CC(C)C)NC(=O)[C@H](CCCN=C(N)N)NC(=O)[C@H](CC(C)C)NC(=O)[C@H](CC(C)C)NC(=O)[C@H](CCCN=C(N)N)NC(=O)[C@H](CCCN=C(N)N)NC(=O)[C@H](CC(C)C)NC(=O)[C@H](CC(C)C)NC(=O)[C@H](CCCN=C(N)N)NC(=O)[C@H](CCSC)NC(=O)[C@H](C)NC(=O)[C@H](CCCCN)NC(=O)[C@@H]1CCCN1C(=O)[C@H](C)N)C(=O)O [APKAMRLLRRLLRLQKKGI] | – | – | – | – | – | – | – | – | – | – | MIC [14]: 0.442 µM (≈ 1 µg/mL); MIC [15]: 0.221 µM (≈ 0.5 µg/mL); MIC [16]: 0.221 µM (≈ 0.5 µg/mL); MIC [17]: 0.442 µM (≈ 1 µg/mL); MIC [18]: 0.442 µM (≈ 1 µg/mL); MIC [19]: 0.221 µM (≈ 0.5 µg/mL); MIC [20]: 0.442 µM (≈ 1 µg/mL); MIC [21]: 0.884 µM (≈ 2 µg/mL); MIC [22]: 0.442 µM (≈ 1 µg/mL)
6 | CC(C)C[C@H](NC(=O)[C@H](CC(C)C)NC(=O)[C@H](Cc1c[nH]c2ccccc12)NC(=O)[C@H](CCCCN)NC(=O)[C@H](CC(C)C)NC(=O)[C@H](CC(C)C)NC(=O)[C@H](Cc1c[nH]c2ccccc12)NC(=O)[C@H](CCCCN)NC(=O)[C@H](CC(C)C)NC(=O)[C@@H](N)CC(C)C)C(=O)N[C@@H](CCCCN)C(N)=O [LLKWLLKWLLK] | 0.894 µM (≈ 1.3 µg/mL) | > 55 µM | ≥ 55 µM | 1.72 µM (≈ 2.5 µg/mL) | > 55 µM | > 55 µM | ≥ 55 µM | 1.72 µM (≈ 2.5 µg/mL) | 3.44 µM (≈ 5 µg/mL) | 0.894 µM (≈ 1.3 µg/mL) | –
7 | CC[C@H](C)[C@H](N)C(=O)N[C@H](C(=O)NCC(=O)N[C@@H](C)C(=O)N[C@H](C(=O)N[C@@H](C)C(=O)N[C@@H](C)C(=O)N[C@@H](C)C(=O)N[C@@H](CC(C)C)C(=O)N1CCC[C@H]1C(=O)N[C@@H](Cc1cnc[nH]1)C(=O)N[C@H](C(=O)N[C@H](C(=O)N[C@@H](CC(N)=O)C(=O)N[C@@H](C)C(=O)N[C@H](C(=O)N[C@@H](CCCCN)C(=O)N[C@@H](CC(N)=O)C(=O)N[C@H](C(=O)N[C@@H](Cc1ccccc1)C(=O)O)[C@@H](C)O)[C@@H](C)CC)[C@@H](C)CC)C(C)C)[C@@H](C)CC)[C@@H](C)CC [IIGAIAAALPHVINAIKNTF] | – | – | – | – | – | – | – | – | – | – | MIC [23]: ≥ 120 µM; MIC [24]: 16 µM (≈ 32.8 µg/mL)
8 | CC[C@H](C)[C@H](NC(=O)[C@H](CO)NC(=O)[C@H](CC(N)=O)NC(=O)[C@@H](NC(=O)[C@H](Cc1ccccc1)NC(=O)[C@H](C)NC(=O)[C@H](CO)NC(=O)[C@H](C)NC(=O)[C@H](Cc1ccccc1)NC(=O)[C@H](CC(C)C)NC(=O)[C@H](CCCCN)NC(=O)[C@H](C)NC(=O)CNC(=O)[C@H](CC(C)C)NC(=O)[C@H](CCCCN)NC(=O)[C@H](CC(C)C)NC(=O)[C@H](CCCCN)NC(=O)[C@H](CC(C)C)NC(=O)[C@H](CC(C)C)NC(=O)[C@H](Cc1ccccc1)NC(=O)CN)C(C)C)C(=O)N[C@@H](CCCCN)C(N)=O [GFLLKLKLGAKLFASAFVNSIK] | – | – | – | – | – | – | – | – | – | – | MIC [23]: 6.76 µM (≈ 16 µg/mL); MIC [25]: 13.5 µM (≈ 32 µg/mL); MIC [24]: 6.76 µM (≈ 16 µg/mL)
9 | CC(C)C[C@H](NC(=O)[C@H](Cc1c[nH]c2ccccc12)NC(=O)[C@H](CCCCN)NC(=O)[C@H](CC(C)C)NC(=O)[C@H](CC(C)C)NC(=O)[C@H](CCCCN)NC(=O)[C@H](CCCCN)NC(=O)[C@H](CC(C)C)NC(=O)[C@H](CC(C)C)NC(=O)[C@H](CCCCN)NC(=O)[C@@H](N)CCCCN)C(N)=O [KKLLKKLLKWL] | 0.709 µM (≈ 0.999 µg/mL) | 1.42 µM (≈ 2 µg/mL) | 1.42 µM (≈ 2 µg/mL) | 1.42 µM (≈ 2 µg/mL) | 2.84 µM (≈ 4 µg/mL) | 0.709 µM (≈ 0.999 µg/mL) | 0.709 µM (≈ 0.999 µg/mL) | 0.709 µM (≈ 0.999 µg/mL) | 2.84 µM (≈ 4 µg/mL) | 0.709 µM (≈ 0.999 µg/mL) | –
10 | CC[C@H](C)[C@H](NC(=O)[C@H](C)NC(=O)[C@H](CCCN=C(N)N)NC(=O)[C@H](Cc1cnc[nH]1)NC(=O)[C@@H](NC(=O)[C@H](C)NC(=O)[C@H](CCCN=C(N)N)NC(=O)[C@@H](NC(=O)CNC(=O)[C@H](Cc1cnc[nH]1)NC(=O)[C@H](CO)NC(=O)[C@@H](NC(=O)[C@H](Cc1c[nH]c2ccccc12)NC(=O)CNC(=O)[C@@H](NC(=O)[C@@H](NC(=O)[C@H](C)NC(=O)[C@H](Cc1cnc[nH]1)NC(=O)[C@@H](NC(=O)[C@@H](N)Cc1ccccc1)[C@@H](C)CC)[C@@H](C)CC)[C@@H](C)CC)[C@@H](C)CC)C(C)C)[C@@H](C)CC)C(=O)N[C@@H](Cc1cnc[nH]1)C(N)=O [FIHAIIGWISHGVRAIHRAIH] | – | – | – | – | – | – | – | – | – | – | MIC (Aeromonas hydrophila): 16 µM (≈ 38.5 µg/mL); MIC (Vibrio harveyi): ≥ 32 µM
